The values below come from ChEMBL document CHEMBL1201862, “PubChem BioAssay data set” (2004).

Test [1] deals with Streptococcus sp. 'group A'. Put plainly: growth inhibition of control SK(-) GAS strain, dose response, counter-screen for streptokinase expression inhibitor project, luminescence, kanamycin, BacTiterGlo, confirmation (AID 1900). Type of test: functional, organism-based.
In test [2] the target is T1, Streptokinase A (Streptococcus pyogenes serotype M1, UniProt P10520).
T1 sequence (P10520 whole entry): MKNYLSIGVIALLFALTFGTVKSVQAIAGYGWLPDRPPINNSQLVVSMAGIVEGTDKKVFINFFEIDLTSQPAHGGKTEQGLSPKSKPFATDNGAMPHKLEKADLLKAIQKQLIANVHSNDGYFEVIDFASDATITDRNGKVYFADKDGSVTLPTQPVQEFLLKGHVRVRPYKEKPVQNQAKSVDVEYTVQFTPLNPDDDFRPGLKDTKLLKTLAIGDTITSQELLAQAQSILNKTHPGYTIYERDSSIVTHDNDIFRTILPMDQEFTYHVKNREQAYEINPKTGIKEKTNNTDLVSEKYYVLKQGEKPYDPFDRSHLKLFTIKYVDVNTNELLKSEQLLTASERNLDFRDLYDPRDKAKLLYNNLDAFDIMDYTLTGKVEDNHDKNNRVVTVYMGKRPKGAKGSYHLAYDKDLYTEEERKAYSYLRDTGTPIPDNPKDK
Briefly: S. pyogenes streptokinase expression inhibitors, potency, dose response, plasminogen activation absorbance, OD405 (AID 1914).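 Also: secreted streptokinase activity via plasminogen activation per viability signal from cell pellet.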 Type of test: functional, Streptococcus pyogenes M1 GAS.

For test [3], the target named is NS3 (Hepatitis C virus, UniProt A3EZJ3). Briefly: PubChem AID 2173. On the set-up: species or system Hepacivirus hominis.
Test [4] has as its system Streptococcus. Put plainly: Group A Streptococcus viability loss, dose response, counter-screen for streptokinase expression inhibitor project, luminescence, BacTiterGlo (AID 1915).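 Also: potency for reduction of bacterial viability or growth.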 The class given is functional, organism-based.
Test [5] has as its target DNA topoisomerase (Yersinia pestis, UniProt A0A2S9PM60). Put plainly: Y. pestis Topo-I inhibitors, cleavage product readout, dose response, biochemical, cherry-pick (AID 588525).
For test [6], the target named is T2, Aminopeptidase N (Plasmodium falciparum FcB1/Columbia, UniProt O96935).
T2 sequence (O96935 whole entry): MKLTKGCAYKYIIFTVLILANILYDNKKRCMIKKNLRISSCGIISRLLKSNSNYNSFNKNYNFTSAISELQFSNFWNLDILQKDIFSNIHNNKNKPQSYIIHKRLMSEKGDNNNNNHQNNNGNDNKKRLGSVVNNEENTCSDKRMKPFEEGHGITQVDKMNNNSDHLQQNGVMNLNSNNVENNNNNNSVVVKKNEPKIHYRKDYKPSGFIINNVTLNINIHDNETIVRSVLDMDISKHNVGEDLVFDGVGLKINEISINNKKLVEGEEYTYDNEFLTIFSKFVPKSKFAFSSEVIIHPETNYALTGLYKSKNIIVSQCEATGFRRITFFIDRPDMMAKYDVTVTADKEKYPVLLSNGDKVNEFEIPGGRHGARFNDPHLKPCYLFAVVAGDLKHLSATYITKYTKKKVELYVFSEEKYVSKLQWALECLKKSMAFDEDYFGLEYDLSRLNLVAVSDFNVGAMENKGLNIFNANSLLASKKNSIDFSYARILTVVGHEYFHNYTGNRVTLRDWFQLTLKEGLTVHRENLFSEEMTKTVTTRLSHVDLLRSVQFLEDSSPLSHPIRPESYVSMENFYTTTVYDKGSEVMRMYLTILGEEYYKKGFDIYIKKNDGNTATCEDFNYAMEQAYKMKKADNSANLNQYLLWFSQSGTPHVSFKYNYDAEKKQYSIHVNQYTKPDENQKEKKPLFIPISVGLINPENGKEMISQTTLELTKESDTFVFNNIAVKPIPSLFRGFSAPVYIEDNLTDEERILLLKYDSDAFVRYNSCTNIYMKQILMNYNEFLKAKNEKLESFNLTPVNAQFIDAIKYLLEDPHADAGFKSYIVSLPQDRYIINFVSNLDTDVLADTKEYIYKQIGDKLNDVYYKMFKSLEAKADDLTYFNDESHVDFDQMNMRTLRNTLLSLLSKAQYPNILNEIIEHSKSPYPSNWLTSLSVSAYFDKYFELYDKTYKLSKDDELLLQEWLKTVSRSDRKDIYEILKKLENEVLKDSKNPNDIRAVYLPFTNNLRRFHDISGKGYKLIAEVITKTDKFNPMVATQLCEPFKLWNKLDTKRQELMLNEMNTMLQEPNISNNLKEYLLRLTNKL
Put plainly: P. falciparum M1AAP inhibitors, biochemical, fluorogenic H-Leu-NHMec substrate, 1536-well (AID 1445). Details: species or system Plasmodium falciparum 3D7, 3D7.

Test [7] is described as follows: Luminescence Cell-Based Dose Confirmation HTS to Identify Activators of 5'UTR Stem-Loop Driven Alpha-Synuclein mRNA Translation in H4 Neuroglioblastoma Cells. [Related pubchem assays: 1829 (Project Summary), 1814 (Primary HTS)]. The class given is functional.
Test [8] in a line: Luminescence Cell-Based Dose Response HTS to Identify Activators of Luciferase Translation or Activity in H4 […] Cells. [Related pubchem assays: 1829 (Project Summary), 1814 (Primary HTS)]. Type of test: functional.
In test [9] the test system is H4. Briefly: Luminescence Cell-Based Dose Response HTS to Identify Activators of 5'UTR Stem-Loop Driven Prion Protein mRNA Translation in H4 Neuroglioblastoma Cells. [Related pubchem assays: 1829 (Project Summary), 1814 (Primary HTS)]. To be noted: Homo sapiens. Type of test: functional.
Test [10] can be described thus: enhancers of respiration in Yfh1-depleted yeast, dose response, Friedreich's ataxia, plus single-dose screen (AID 1465).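 Also: yeast depleted of Yfh1p frataxin homolog grown on glycerol needing respiration; WST-1 tetrazolium dye reduction as measure of cellular dehydrogenase metabolic activity.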 The class given is functional.
Test [11] deals with Induced myeloid leukemia cell differentiation protein Mcl-1 (Homo sapiens, UniProt Q07820). The class given is functional.
Test [12] deals with Glucose-6-phosphate 1-dehydrogenase (Homo sapiens, UniProt P11413). Briefly: human G6PD enzyme inhibitors, dose response, selectivity assay for P. falciparum G6PD inhibitor project, biochemical, fluorescence (AID 504792). Type of test: functional.
Test [13] addresses T3, Replicative DNA helicase DnaB (Mycobacterium tuberculosis, UniProt P9WMR3).
T3 sequence (P9WMR3 whole entry): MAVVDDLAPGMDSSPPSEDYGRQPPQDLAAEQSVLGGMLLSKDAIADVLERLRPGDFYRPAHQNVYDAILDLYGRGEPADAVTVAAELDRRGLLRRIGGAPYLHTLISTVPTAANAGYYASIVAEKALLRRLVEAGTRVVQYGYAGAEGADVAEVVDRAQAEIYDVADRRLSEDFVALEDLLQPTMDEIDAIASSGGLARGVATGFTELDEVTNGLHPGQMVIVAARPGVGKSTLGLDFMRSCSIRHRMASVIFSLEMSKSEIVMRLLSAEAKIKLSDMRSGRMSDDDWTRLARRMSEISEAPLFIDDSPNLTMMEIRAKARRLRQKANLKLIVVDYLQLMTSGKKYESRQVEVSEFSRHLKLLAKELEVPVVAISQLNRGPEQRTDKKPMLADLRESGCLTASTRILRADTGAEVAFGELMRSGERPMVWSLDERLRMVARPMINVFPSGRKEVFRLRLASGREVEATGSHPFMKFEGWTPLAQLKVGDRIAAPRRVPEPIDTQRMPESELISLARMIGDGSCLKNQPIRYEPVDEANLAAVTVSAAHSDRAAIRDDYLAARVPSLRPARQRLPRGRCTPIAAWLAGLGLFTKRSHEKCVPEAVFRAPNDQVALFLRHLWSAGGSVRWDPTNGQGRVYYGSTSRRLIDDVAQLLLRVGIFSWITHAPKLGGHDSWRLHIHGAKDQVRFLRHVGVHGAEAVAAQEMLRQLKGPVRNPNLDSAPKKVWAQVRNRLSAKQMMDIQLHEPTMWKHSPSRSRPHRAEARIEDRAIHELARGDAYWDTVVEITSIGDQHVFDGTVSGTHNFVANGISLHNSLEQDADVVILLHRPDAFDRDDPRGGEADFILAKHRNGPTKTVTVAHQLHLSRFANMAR
Briefly: DnaB intein splicing inhibitors, dose response, biochemical, cell-free fluorescence (AID 449749). Type of test: functional.

Test [14] concerns Vero. Briefly: Vero cell cytotoxicity, cytotoxicity control for flavivirus capping enzyme inhibitors (AID 588742). The class given is functional. To be noted: Chlorocebus sabaeus.
The target in test [15] is T4, Protein RecA (Mycobacterium tuberculosis, UniProt P9WHJ3).
T4 sequence (P9WHJ3 whole entry): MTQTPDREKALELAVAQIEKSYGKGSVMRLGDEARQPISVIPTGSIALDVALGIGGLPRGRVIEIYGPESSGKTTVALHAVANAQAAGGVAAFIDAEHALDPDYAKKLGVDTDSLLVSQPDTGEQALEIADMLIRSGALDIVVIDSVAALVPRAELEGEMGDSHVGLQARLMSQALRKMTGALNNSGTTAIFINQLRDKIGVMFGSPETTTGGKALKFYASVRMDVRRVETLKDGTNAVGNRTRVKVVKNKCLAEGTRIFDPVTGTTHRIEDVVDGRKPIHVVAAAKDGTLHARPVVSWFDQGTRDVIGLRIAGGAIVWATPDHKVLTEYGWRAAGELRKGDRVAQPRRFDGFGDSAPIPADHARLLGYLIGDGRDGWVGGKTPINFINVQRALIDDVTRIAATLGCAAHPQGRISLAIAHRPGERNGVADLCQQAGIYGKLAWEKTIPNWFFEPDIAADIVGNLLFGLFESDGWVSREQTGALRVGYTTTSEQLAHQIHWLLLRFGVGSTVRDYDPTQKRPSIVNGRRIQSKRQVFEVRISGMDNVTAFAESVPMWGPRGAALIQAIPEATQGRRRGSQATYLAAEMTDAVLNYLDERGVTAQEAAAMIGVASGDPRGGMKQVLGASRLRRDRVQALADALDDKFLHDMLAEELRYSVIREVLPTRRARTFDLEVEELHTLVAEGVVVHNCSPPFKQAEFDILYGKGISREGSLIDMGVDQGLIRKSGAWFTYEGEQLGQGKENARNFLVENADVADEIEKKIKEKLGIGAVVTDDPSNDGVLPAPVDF
Briefly: Fluorescence Cell-Free Homogeneous Dose Retest to Identify Inhibitors of RecA-Intein Splicing Activity. [Related pubchem assays (depositor defined):AID2097, AID2223, AID489010, AID492950]. Type of test: functional.

In test [16] the target is Genome polyprotein (dengue virus type 2, UniProt P29990). Briefly: Dengue-2 NS5 methyltransferase inhibitors, primary screen, biochemical, confirmation dose response (AID 588689). The class given is functional.
The target in test [17] is T5, Polyadenylate-binding protein 1 (Homo sapiens, UniProt P11940). Briefly: PABP1 MLLE–PAM2 interaction inhibitors, dose response, miRNA deadenylation inhibitor project, biochemical, fluorescence polarization, Cy5-PAM2 peptide, secondary (AID 602260). Type of test: functional. To be noted: read-out: IC50_Mean.
Test [18] deals with T5, Polyadenylate-binding protein 1. Briefly: PABP1 MLLE–PAM2 binding inhibitor potency, dose response, biochemical, fluorescence polarization, FITC-PAM2 peptide (AID 602259). The class given is functional. To be noted: read-out: IC50_Mean.

Activity calls are given as the source filed them.

T5 sequence (P11940 whole entry): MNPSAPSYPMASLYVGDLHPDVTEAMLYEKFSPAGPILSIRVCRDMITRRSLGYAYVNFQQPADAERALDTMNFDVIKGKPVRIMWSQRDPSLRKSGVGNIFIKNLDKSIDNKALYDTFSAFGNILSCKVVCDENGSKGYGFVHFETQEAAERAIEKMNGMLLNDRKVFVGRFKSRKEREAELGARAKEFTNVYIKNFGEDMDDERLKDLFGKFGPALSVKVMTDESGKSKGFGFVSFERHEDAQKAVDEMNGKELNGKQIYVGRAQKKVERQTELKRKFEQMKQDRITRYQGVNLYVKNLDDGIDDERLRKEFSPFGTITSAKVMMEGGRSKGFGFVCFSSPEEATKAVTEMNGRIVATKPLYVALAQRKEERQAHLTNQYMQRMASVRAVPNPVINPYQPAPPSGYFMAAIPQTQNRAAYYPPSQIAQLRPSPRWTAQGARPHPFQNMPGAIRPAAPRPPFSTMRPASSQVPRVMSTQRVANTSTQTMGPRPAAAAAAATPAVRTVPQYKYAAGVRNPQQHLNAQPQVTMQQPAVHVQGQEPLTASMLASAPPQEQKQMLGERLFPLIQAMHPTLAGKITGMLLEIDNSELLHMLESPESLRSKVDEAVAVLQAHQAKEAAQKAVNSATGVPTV
Induced myeloid leukemia cell differentiation protein Mcl-1, sequence (Q07820 whole entry): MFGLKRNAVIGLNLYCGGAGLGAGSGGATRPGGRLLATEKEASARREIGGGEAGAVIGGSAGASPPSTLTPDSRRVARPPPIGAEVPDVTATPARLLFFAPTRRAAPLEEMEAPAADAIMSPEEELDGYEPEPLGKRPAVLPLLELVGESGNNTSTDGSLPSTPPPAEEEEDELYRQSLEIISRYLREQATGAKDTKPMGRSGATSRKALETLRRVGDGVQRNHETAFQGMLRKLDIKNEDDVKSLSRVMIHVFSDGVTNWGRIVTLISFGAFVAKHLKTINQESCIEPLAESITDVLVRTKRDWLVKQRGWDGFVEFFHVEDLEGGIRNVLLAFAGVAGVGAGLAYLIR
DNA topoisomerase, sequence (A0A2S9PM60 whole entry): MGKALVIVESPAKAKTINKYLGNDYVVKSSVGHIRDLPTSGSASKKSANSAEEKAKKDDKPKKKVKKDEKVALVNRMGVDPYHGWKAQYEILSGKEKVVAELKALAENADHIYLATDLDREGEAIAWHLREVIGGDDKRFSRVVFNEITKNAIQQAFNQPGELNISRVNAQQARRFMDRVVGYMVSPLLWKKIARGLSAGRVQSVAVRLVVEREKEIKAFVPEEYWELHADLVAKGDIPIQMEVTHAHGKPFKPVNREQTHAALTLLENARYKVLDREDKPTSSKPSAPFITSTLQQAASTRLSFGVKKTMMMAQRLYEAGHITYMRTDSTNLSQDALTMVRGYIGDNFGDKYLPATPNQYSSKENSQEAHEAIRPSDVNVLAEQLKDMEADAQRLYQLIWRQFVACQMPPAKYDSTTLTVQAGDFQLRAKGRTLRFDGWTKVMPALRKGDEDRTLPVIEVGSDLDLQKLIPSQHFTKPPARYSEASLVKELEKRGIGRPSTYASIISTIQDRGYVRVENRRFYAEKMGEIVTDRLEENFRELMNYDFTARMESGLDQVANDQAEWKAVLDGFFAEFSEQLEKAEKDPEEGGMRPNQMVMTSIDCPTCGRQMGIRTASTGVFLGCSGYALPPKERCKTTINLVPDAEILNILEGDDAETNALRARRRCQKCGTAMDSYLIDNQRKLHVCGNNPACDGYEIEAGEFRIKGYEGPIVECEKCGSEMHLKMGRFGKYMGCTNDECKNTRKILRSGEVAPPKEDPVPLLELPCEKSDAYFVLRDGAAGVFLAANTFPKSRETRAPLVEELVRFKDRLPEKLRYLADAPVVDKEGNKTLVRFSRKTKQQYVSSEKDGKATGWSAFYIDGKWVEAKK
Genome polyprotein, sequence (P29990 2492-3391 limits assumed): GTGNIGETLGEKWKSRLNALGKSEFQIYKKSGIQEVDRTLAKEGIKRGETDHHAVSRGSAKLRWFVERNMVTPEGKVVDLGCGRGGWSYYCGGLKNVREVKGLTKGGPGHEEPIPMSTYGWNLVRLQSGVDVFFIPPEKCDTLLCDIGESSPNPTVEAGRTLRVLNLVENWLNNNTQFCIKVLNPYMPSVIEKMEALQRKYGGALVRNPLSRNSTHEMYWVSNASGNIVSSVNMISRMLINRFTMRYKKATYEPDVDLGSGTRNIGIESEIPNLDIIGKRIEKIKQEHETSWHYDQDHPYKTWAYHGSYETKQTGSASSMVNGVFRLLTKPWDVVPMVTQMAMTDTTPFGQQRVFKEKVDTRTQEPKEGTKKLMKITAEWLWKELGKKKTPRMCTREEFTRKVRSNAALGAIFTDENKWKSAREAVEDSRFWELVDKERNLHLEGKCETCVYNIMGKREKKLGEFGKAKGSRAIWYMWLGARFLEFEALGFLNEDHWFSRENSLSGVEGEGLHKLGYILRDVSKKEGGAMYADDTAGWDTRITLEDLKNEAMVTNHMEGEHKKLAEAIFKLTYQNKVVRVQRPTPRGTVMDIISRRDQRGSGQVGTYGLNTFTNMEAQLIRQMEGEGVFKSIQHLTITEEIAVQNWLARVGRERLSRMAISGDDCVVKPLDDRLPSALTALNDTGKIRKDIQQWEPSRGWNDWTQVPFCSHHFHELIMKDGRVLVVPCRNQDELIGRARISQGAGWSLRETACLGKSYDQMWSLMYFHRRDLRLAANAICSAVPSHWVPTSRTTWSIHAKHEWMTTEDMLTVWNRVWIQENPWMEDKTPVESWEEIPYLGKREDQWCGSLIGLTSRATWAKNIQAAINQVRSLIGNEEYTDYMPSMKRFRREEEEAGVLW
Glucose-6-phosphate 1-dehydrogenase, sequence (P11413 whole entry): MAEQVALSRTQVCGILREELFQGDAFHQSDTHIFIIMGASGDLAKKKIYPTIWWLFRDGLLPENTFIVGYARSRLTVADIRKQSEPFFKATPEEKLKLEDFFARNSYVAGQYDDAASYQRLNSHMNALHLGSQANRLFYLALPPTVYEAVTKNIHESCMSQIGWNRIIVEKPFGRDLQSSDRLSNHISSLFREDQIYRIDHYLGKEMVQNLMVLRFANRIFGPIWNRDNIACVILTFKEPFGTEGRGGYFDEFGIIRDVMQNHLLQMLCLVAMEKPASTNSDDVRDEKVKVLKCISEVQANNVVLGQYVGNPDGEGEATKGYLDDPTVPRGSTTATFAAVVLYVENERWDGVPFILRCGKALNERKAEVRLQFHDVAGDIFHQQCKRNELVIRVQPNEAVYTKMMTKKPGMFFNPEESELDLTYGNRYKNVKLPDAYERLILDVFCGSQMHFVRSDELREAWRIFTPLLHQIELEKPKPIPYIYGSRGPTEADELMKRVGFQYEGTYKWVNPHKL
NS3, sequence (A3EZJ3 whole entry): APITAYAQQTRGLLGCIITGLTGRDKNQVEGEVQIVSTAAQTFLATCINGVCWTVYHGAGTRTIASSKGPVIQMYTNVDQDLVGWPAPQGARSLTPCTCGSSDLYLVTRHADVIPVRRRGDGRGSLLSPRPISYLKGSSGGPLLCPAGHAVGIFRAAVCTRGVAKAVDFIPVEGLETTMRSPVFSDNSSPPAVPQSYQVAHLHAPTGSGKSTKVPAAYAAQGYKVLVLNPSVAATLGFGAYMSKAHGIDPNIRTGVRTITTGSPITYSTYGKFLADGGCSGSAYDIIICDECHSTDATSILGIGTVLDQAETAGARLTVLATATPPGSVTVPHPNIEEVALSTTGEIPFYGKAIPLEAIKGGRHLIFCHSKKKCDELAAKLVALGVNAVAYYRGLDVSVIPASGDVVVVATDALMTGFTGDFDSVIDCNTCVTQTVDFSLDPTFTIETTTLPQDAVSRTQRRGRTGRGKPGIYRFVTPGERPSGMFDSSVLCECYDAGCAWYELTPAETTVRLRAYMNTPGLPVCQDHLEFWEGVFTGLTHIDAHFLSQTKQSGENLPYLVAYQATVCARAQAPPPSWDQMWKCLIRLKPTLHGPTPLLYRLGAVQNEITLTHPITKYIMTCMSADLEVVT

As for `Cc1ccc(C2C(C(=O)c3cc4ccccc4o3)=C(O)C(=O)N2c2cc(C)on2)cc1` (stereo not drawn), the EC50 in test [1] is 2.28 µM (active); in [2], 6.3 µM (active); in [4], 6.76 µM (active). For the same compound, the IC50 in test [3] is 2.49 µM (active). For the same compound, the AC50 in [5] is 8.86 µM (active).

As to `Cc1ccc(S(=O)(=O)/N=C2/C=C(C3C(=O)CC(C)(C)CC3=O)C(=O)c3ccccc32)cc1`, the IC50 was 34.5 µM (active) in test [6]; 2.13 µM (active) in test [11]; > 80 µM (inactive) in [12]; 10.1 µM (active) in [16]; > 66 µM (inactive) in test [17]; > 66 µM (inactive) in test [18]. Moreover, the EC50 in test [7] was 8.21 µM (active); in test [8], 42.1 µM (active); in test [9] it was 46.4 µM (active); in [10], > 100 µM (active); in test [15], 3.22 µM (active). For the same compound, the half-maximal activity concentration (AC50) in [13] was 113 µM (active). Further, the CC50 in test [14] was > 40 µM (active).
